Assay results as given in patent publication US12180474B2, “Methods of treating porphyria” (University of Pittsburgh—Of the Commonwealth System of …, priority 2018, dated 2024).

Tests used:
Format in all cases: in vivo
[1] = molecular target: T1, Porcupine (PORCN) (Mus musculus, UniProt Q9JJJ7); experiment: Wnt-C59 in DDC-fed CD-1 mice (Example 2); conditions: 30 mg/kg i.p.
T1 construct: from tissue; host or cells: whole mouse in vivo; liver and serum analysed
T1 sequence (Q9JJJ7 1-461): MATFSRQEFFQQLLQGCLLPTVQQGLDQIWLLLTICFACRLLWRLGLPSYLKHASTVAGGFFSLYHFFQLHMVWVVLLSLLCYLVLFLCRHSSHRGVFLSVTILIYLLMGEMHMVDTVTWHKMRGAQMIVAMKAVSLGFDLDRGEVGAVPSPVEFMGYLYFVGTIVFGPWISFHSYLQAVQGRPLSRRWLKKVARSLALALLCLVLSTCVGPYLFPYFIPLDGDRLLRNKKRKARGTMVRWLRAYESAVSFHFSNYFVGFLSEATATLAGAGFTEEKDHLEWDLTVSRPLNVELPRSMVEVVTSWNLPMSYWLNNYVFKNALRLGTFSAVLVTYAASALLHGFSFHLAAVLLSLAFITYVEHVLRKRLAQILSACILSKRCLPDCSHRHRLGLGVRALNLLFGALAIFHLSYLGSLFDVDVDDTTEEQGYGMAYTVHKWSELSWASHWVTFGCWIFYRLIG
Method: Two-month old CD-1 mice were started on a 0.1% DDC diet to induce porphyria. Three days after starting the diet, mice received intraperitoneal (i.p.) injections of 30 mg/kg Porcupine (PORCN) inhibitor Wnt-C59. The Wnt-C59 was delivered on a five days on, two days off schedule for two weeks. Mice were sacrificed 6 hours after the final dose of Wnt-C59. Serum and livers from the control and experimental groups were utilized for IHC, Western blotting, and biochemical assays, as described in Example 1.

[2] = molecular target: T1, Porcupine (PORCN); experiment: Wnt-C59 in WT1/WT2 mice, acute intermittent porphyria model (Example 3); conditions: 30 mg/kg i.p., vs control group
[3] = molecular target: T1, Porcupine (PORCN); experiment: Wnt-C59, GS and p-mTOR IHC in DDC-fed WT1/WT2 mice (Example 4)
Excerpt: To test the effect of Wnt-C59 on GS and p-mTOR levels, two-month old WT1/WT2 mice were exposed to a DCC diet, as described in Example 1, and received i.p. injections of Wnt-C59, as described in Example 2. Livers from the control and experimental groups were utilized for IHC, as described in Example 1.

[4] = five days on, two days off for two weeks, 0.1% DDC diet

- glutamine synthetase (GS), β-catenin activity ([1]; DDC diet): decrease
- porphyrin accumulation (H&E) ([1]; DDC diet): decreased
- serum ALP [1, 4]: significantly reduced
- serum total bilirubin [1, 4]: significantly reduced
- ALA-D mRNA levels [2]: significantly reduced
- ALA-S mRNA levels [2]: significantly reduced
- p-mTOR protein expression (IHC) ([3]; DCC diet and Wnt-C59 injection): no expression
- GS protein expression (IHC) ([3]; DDC diet and Wnt-C59 injection): no expression
SMILES: Cc1cc(-c2ccc(CC(=O)Nc3ccc(-c4cccnc4)cc3)cc2)ccn1 [Wnt-C59]
- serum ALT [1, 4]: significantly reduced
- serum AST [1, 4]: significantly reduced
